{
  "source": "patent US9662327B2",
  "about": "(AGIOS PHARMACEUTICALS, INC, priority 2011, dated 2017)",
  "data": [
    {"molecular_target": "IDH1 R132H (Homo sapiens (Human), UniProt O75874, R132H)", "sequence (O75874 whole entry R132H)": "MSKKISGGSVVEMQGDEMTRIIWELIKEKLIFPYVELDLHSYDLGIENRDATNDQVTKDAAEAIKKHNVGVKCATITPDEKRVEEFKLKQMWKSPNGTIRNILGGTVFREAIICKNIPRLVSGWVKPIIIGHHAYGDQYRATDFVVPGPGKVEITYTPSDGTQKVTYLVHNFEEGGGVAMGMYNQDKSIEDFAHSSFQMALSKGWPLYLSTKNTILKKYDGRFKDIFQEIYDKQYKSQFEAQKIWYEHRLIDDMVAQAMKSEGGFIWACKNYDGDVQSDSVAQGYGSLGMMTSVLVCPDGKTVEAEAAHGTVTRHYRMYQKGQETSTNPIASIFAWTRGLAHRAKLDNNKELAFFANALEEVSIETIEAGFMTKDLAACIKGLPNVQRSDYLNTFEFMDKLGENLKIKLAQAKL", "experiment": "Assays for IDH1 R132H Inhibitors (NADPH/aKG, resazurin detection)", "type": "biochemical", "details": "IDH1 R132H enzyme, Table 2; read-out: IDHR132H Activity", "protocol": "(§1) Assays were conducted in a volume of […] assay buffer (150 mM NaCl, 10 mM MgCl2, 20 mM Tris pH 7.5, 0.03% bovine serum albumin) as follows in a standard 384-well plate: To 25 ul of substrate mix (8 uM NADPH, 2 mM aKG), 1 μl of test compound was added in DMSO. […] The reaction was incubated for 50 minutes at room temperature, then 25 μl of detection mix (30 μM resazurin, […]) was added and the mixture further incubated for 5 minutes at room temperature.", "units": {"IC50": "nM"}, "values": [
      {"smiles": "CC(C)c1nc(N2CCN(C(=O)c3ccco3)[C@@H](c3ccccc3)C2)c(C#N)c2c1COC(C)(C)C2", "note": "[Compound 223, (S)-6-(4-(furan-2-carbonyl)-3-phenylpiperazin-1-yl)-8-isopropyl-3,3-dimethyl-3,4-dihydro-1H-pyrano[3,4-c]pyridine-5-carbonitrile]", "IC50": "500 to 1000"},
      {"smiles": "CC[C@@H]1CN(c2nc(C3CC3)c3c(c2C#N)CC(C)(C)OC3)CCN1C(=O)Cc1cccnc1", "note": "[Compound 294]", "IC50": "500 to 1000"},
      {"smiles": "Cc1cc(C(=O)N2CCN(c3nc(C4CCCCC4)c4c(c3C#N)CCOC4)CC2)c(C)o1", "note": "[Compound 121, 8-cyclohexyl-6-(4-(2,5-dimethylfuran-3-carbonyl)piperazin-1-yl)-3,4-dihydro-1H-pyrano[3,4-c]pyridine-5-carbonitrile]", "IC50": "1000 to 10000"},
      {"smiles": "CCNC(=O)N1CCN(c2nc(C3CCCCC3)c3c(c2C#N)CCOC3)C[C@H]1C", "note": "[Compound 335, (R)-4-(5-cyano-8-cyclohexyl-3,4-dihydro-1H-pyrano[3,4-c]pyridin-6-yl)-N-ethyl-2-methylpiperazine-1-carboxamide]", "IC50": "1000 to 10000"},
      {"smiles": "CC(C)c1nc(N2CCN(C(=O)Cc3ccccc3F)[C@H](C)C2)c(C#N)c2c1COC(C)(C)C2", "note": "[Compound 219, (R)-6-(4-(2-(2-fluorophenyl)acetyl)-3-methylpiperazin-1-yl)-8-isopropyl-3,3-dimethyl-3,4-dihydro-1H-pyrano[3,4-c]pyridine-5-carbonitrile]", "IC50": "1000 to 10000"},
      {"smiles": "COCCC(=O)N1CCN(c2nc(C(C)C)c3c(c2C#N)CC(C)(C)OC3)C[C@H]1C", "note": "[Compound 268, (R)-8-isopropyl-6-(4-(3-methoxypropanoyl)-3-methylpiperazin-1-yl)-3,3-dimethyl-3,4-dihydro-1H-pyrano[3,4-c]pyridine-5-carbonitrile]", "IC50": "500 to 1000"},
      {"smiles": "CC[C@@H]1CN(c2nc(C(C)C)c3c(c2C#N)CC(C)(C)OC3)CCN1C(=O)c1ccoc1C", "note": "[Compound 207, (R)-6-(3-ethyl-4-(2-methylfuran-3-carbonyl)piperazin-1-yl)-8-isopropyl-3,3-dimethyl-3,4-dihydro-1H-pyrano[3,4-c]pyridine-5-carbonitrile]", "IC50": "< 500"},
      {"smiles": "COCC(=O)N1CCN(c2nc(C3CCCCC3)c3c(c2C#N)CCOC3)C[C@H]1C", "note": "[Compound 341]", "IC50": "1000 to 10000"},
      {"smiles": "COC(=O)C1CN(c2nc(C(C)C)c3c(c2C#N)CC(C)(C)OC3)CCN1C(=O)c1ccoc1", "note": "(centres unmarked) [Compound 393, methyl 4-(5-cyano-8-isopropyl-3,3-dimethyl-3,4-dihydro-1H-pyrano[3,4-c]pyridin-6-yl)-1-(furan-3-carbonyl)piperazine-2-carboxylate]", "IC50": "500 to 1000"},
      {"smiles": "N#Cc1c(N2CCN(C(=O)c3ccc4cc[nH]c4c3)CC2)nc(C2CCCCC2)c2c1CCOC2", "note": "[Compound 123, 6-(4-(1H-indole-6-carbonyl)piperazin-1-yl)-8-cyclohexyl-3,4-dihydro-1H-pyrano[3,4-c]pyridine-5-carbonitrile]", "IC50": "1000 to 10000"},
      {"smiles": "Cc1occc1C(=O)N1CCN(c2nc(C(C)C)c3c(c2C#N)CCOC3)C(c2ccccc2)C1", "note": "(centres unmarked) [Compound 177, 8-isopropyl-6-(4-(2-methylfuran-3-carbonyl)-2-phenylpiperazin-1-yl)-3,4-dihydro-1H-pyrano[3,4-c]pyridine-5-carbonitrile]", "IC50": "1000 to 10000"},
      {"smiles": "CCOC(=O)N1CCN(c2nc(C3CCCCC3)c3c(c2C#N)CCOC3)C[C@H]1C", "note": "[Compound 358, (R)-ethyl 4-(5-cyano-8-cyclohexyl-3,4-dihydro-1H-pyrano[3,4-c]pyridin-6-yl)-2-methylpiperazine-1-carboxylate]", "IC50": "1000 to 10000"},
      {"smiles": "COC(=O)C1CN(c2nc(C3CC3)c3c(c2C#N)CC(C)(C)OC3)CCN1C(=O)c1ccoc1C", "note": "(centres unmarked) [Compound 394, methyl 4-(5-cyano-8-cyclopropyl-3,3-dimethyl-3,4-dihydro-1H-pyrano[3,4-c]pyridin-6-yl)-1-(2-methylfuran-3-carbonyl)piperazine-2-carboxylate]", "IC50": "500 to 1000"},
      {"smiles": "CC(C)[C@@H]1CN(c2nc(C3(C)CC3)c3c(c2C#N)CC(C)(C)OC3)CCN1C(=O)c1ccoc1", "note": "[Compound 386]", "IC50": "1000 to 10000"},
      {"smiles": "C[C@@H]1CN(c2nc(C3CCCCC3)c3c(c2C#N)CC(C)(C)OC3)CCN1C(=O)c1ccoc1", "note": "[Compound 151, (R)-8-cyclohexyl-6-(4-(furan-3-carbonyl)-3-methylpiperazin-1-yl)-3,3-dimethyl-3,4-dihydro-1H-pyrano[3,4-c]pyridine-5-carbonitrile]", "IC50": "1000 to 10000"},
      {"smiles": "COCCN1CCN(c2nc(C3CC3)c3c(c2C#N)CC(C)(C)OC3)C[C@H]1C(C)C", "note": "[Compound 369, (R)-8-cyclopropyl-6-(3-isopropyl-4-(2-methoxyethyl)piperazin-1-yl)-3,3-dimethyl-3,4-dihydro-1H-pyrano[3,4-c]pyridine-5-carbonitrile]", "IC50": "1000 to 10000"},
      {"smiles": "CCOC(=O)[C@@H]1CN(c2nc(C(C)C)c3c(c2C#N)CC(C)(C)OC3)CCN1C(=O)c1ccoc1", "note": "[Compound 411]", "IC50": "500 to 1000"},
      {"smiles": "CC(C)c1nc(N2CCN(C(=O)c3ccco3)[C@H](C)C2)c(C#N)c2c1COCC2", "note": "[Compound 139, (R)-6-(4-(furan-2-carbonyl)-3-methylpiperazin-1-yl)-8-isopropyl-3,4-dihydro-1H-pyrano[3,4-c]pyridine-5-carbonitrile]", "IC50": "1000 to 10000"},
      {"smiles": "Cc1ncoc1C(=O)N1CCN(c2nc(C3CCCCC3)c3c(c2C#N)CCOC3)C[C@H]1C", "note": "[Compound 225, (R)-8-cyclohexyl-6-(3-methyl-4-(4-methyloxazole-5-carbonyl)piperazin-1-yl)-3,4-dihydro-1H-pyrano[3,4-c]pyridine-5-carbonitrile]", "IC50": "1000 to 10000"},
      {"smiles": "COCCC(=O)N1CCN(c2nc(C3CCC3)c3c(c2C#N)CC(C)(C)OC3)C[C@H]1C(C)C", "note": "[Compound 395, (R)-8-cyclobutyl-6-(3-isopropyl-4-(3-methoxypropanoyl)piperazin-1-yl)-3,3-dimethyl-3,4-dihydro-1H-pyrano[3,4-c]pyridine-5-carbonitrile]", "IC50": "< 500"},
      {"smiles": "COCC1CN(c2nc(C3CC3)c3c(c2C#N)CC(C)(C)OC3)CCN1C(=O)c1ccoc1", "note": "(centres unmarked) [Compound 402, 8-cyclopropyl-6-(4-(furan-3-carbonyl)-3-(methoxymethyl)piperazin-1-yl)-3,3-dimethyl-3,4-dihydro-1H-pyrano[3,4-c]pyridine-5-carbonitrile]", "IC50": "1000 to 10000"},
      {"smiles": "C[C@@H]1CN(c2nc(C3CCCCC3)c3c(c2C#N)CCOC3)CCN1C(=O)c1cocn1", "note": "[Compound 226, (R)-8-cyclohexyl-6-(3-methyl-4-(oxazole-4-carbonyl)piperazin-1-yl)-3,4-dihydro-1H-pyrano[3,4-c]pyridine-5-carbonitrile]", "IC50": "1000 to 10000"},
      {"smiles": "COCCC(=O)N1CCN(c2nc(C3CC3)c3c(c2C#N)CC(C)(C)OC3)C[C@@H]1CC(C)C", "note": "[Compound 389]", "IC50": "1000 to 10000"},
      {"smiles": "CC[C@@H]1CN(c2nc(C3CC3)c3c(c2C#N)CC(C)(C)OC3)CCN1C(=O)Cc1ccccc1OC", "note": "[Compound 295]", "IC50": "500 to 1000"},
      {"smiles": "Cc1ccoc1C(=O)N1CCN(c2nc(C3CCCCC3)c3c(c2C#N)CCOC3)CC1", "note": "[Compound 129, 8-cyclohexyl-6-(4-(3-methylfuran-2-carbonyl)piperazin-1-yl)-3,4-dihydro-1H-pyrano[3,4-c]pyridine-5-carbonitrile]", "IC50": "1000 to 10000"},
      {"smiles": "CC(C)[C@@H]1CN(c2nc(C3CC3)c3c(c2C#N)CC(C)(C)OC3)CCN1C(=O)c1cnn2cccnc12", "note": "[Compound 232, (R)-8-cyclopropyl-6-(3-isopropyl-4-(pyrazolo[1,5-a]pyrimidine-3-carbonyl)piperazin-1-yl)-3,3-dimethyl-3,4-dihydro-1H-pyrano[3,4-c]pyridine-5-carbonitrile]", "IC50": "1000 to 10000"},
      {"smiles": "CC(C)[C@@H]1CN(c2nc(C3CC3)c3c(c2C#N)CC(C)(C)OC3)CCN1C(=O)NC1CC1", "note": "[Compound 398, (R)-4-(5-cyano-8-cyclopropyl-3,3-dimethyl-3,4-dihydro-1H-pyrano[3,4-c]pyridin-6-yl)-N-cyclopropyl-2-isopropylpiperazine-1-carboxamide]", "IC50": "1000 to 10000"},
      {"smiles": "CC1(C)Cc2c(C#N)c(N3CCN(C(=O)c4ccco4)[C@@H](c4ccccc4)C3)nc(C3CC3)c2CO1", "note": "[Compound 273]", "IC50": "500 to 1000"},
      {"smiles": "C[C@@H]1CN(C(=O)c2ccco2)CCN1c1nc(C2CC2)c2c(c1C#N)CC(C)(C)OC2", "note": "[Compound 204, (R)-8-cyclopropyl-6-(4-(furan-2-carbonyl)-2-methylpiperazin-1-yl)-3,3-dimethyl-3,4-dihydro-1H-pyrano[3,4-c]pyridine-5-carbonitrile]", "IC50": "1000 to 10000"},
      {"smiles": "CCOC(=O)N1CCN(c2nc(C3CC3)c3c(c2C#N)CC(C)(C)OC3)C[C@H]1C(C)C", "note": "[Compound 367]", "IC50": "1000 to 10000"}
    ]},
    {"molecular_target": "IDH1 R132H (Homo sapiens (Human), UniProt O75874, R132H)", "experiment": "Assays for IDH1 R132H Inhibitors (NADPH/aKG, resazurin detection)", "type": "biochemical", "details": "IDH1 R132H enzyme, Table 3; read-out: R132H IC50", "protocol": "as §1", "units": {"IC50": "nM"}, "values": [
      {"smiles": "CCCCNC(=O)C(=O)CCC(=O)N1CCN(c2nc(C3CC3)c3c(c2C#N)CC(C)(C)OC3)C[C@H]1C(C)C", "note": "[Compound 467, (R)—N-butyl-5-(4-(5-cyano-8-cyclopropyl-3,3-dimethyl-3,4-dihydro-1H-pyrano[3,4-c]pyridin-6-yl)-2-isopropylpiperazin-1-yl)-2,5-dioxopentanamide]", "IC50": "500 to 1000"},
      {"smiles": "COC(=O)C(C)CCC(=O)N1CCN(c2nc(C3CC3)c3c(c2C#N)CC(C)(C)OC3)C[C@H]1C(C)C", "note": "(stereo partly drawn) [Compound 439, Methyl 5-((R)-4-(5-cyano-8-cyclopropyl-3,3-dimethyl-3,4-dihydro-1H-pyrano[3,4-c]pyridin-6-yl)-2-isopropylpiperazin-1-yl)-2-methyl-5-oxopentanoate]", "IC50": "500 to 1000"},
      {"smiles": "COC(=O)OC[C@@H]1C[C@H]1C(=O)N1CCN(c2nc(C3CC3)c3c(c2C#N)CC(C)(C)OC3)C[C@H]1C(C)C", "note": "[Compound 472, ((1R,2R)-2-((R)-4-(5-cyano-8-cyclopropyl-3,3-dimethyl-3,4-dihydro-1H-pyrano[3,4-c]pyridin-6-yl)-2-isopropylpiperazine-1-carbonyl)cyclopropyl)methyl methyl carbonate]", "IC50": "< 500"},
      {"smiles": "COCCC(=O)N1CCN(c2nc(C3CC3)c3c(c2C#N)CC(C)(C)OC3)CC1C(F)F", "note": "(centres unmarked) [Compound 464]", "IC50": "500 to 1000"},
      {"smiles": "C=CS(=O)(=O)N1CCc2c(C#N)c(N3CCN(C)CC3)nc(C3CC3)c2C1", "note": "[Compound 503]", "IC50": "500 to 1000"}
    ]}
  ]
}
